In patent US9511052B2, “Mineralocorticoid receptor antagonists” (Merck Sharp & Dohme Corp., priority 2012, dated 2016):

Columns and labels:
[1] = molecular target: T1, full-length human Mineralocorticoid Receptor (MR) (Homo sapiens, UniProt P08235); assay: human MR NH Pro assay (PathHunter Protein:Protein interaction assay), MR antagonism; format: cell-based; settings: IP = inflection point of the dose-response curve; CHO-K1 cells overexpressing human MR, aldosterone about 0.3 nM to about 1 nM, 6 hours at 37° C.
T1 construct: host or cells: PathHunter CHO-K1 MR cells
T1 sequence (P08235 1-984): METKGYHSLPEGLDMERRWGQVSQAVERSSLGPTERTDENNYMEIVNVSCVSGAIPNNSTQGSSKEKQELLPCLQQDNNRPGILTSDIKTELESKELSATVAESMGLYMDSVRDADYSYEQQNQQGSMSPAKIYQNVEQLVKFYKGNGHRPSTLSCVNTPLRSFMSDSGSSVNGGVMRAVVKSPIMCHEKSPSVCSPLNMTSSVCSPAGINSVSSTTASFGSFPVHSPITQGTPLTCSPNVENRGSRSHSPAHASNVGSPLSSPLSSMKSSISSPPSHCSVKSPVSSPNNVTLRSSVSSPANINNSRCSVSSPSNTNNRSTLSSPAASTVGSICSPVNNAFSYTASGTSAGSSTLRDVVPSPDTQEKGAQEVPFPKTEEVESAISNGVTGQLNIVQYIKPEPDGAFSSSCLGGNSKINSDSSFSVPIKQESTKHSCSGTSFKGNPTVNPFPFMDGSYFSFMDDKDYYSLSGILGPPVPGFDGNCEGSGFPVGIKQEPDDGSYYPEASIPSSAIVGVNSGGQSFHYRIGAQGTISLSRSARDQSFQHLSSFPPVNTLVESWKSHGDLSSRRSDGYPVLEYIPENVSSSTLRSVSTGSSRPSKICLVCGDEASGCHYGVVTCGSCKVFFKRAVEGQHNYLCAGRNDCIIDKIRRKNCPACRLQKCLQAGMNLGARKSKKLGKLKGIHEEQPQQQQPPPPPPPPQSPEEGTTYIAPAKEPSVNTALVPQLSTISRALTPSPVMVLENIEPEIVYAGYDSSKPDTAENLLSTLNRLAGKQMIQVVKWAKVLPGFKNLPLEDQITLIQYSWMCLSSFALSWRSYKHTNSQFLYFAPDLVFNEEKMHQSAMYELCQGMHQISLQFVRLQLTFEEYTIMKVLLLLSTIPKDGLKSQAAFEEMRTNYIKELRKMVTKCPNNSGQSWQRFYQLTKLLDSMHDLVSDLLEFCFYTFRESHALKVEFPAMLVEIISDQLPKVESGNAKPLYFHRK
Summary of the method: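 PathHunter CHO-K1 MR cells (10K/well) plated overnight at 37°C, 5% CO2, then exposed 6 h to a 10-point titration starting at 36.7 μM final, in duplicate, DMSO <1%. MR–coactivator peptide interaction read by luminescence after 1 h with DiscoveRx detection reagent at room temperature.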

PK profile in rats = format: in vivo, rat
[2] = Liver microsome stability, human; format: in vitro ADME; settings: Human
[3] = Liver microsome stability, rat; format: in vitro ADME; settings: liver microsomes, read-out: Liver Microsome Stability (t1/2)
[4] = Liver microsome stability, dog; format: in vitro ADME; settings: liver microsomes, read-out: Liver Microsome Stability (t1/2)
[5] = Liver microsome stability, rhesus monkey; format: in vitro ADME; settings: liver microsomes, read-out: Liver Microsome Stability (t1/2)
[6] = Hepatocyte stability, human; format: in vitro ADME; settings: human, hepatocytes; read-out: Hepatocyte Stability (t1/2)
[7] = Hepatocyte stability, rat; format: in vitro ADME; settings: hepatocytes, read-out: Hepatocyte Stability (t1/2)
[8] = Hepatocyte stability, dog; format: in vitro ADME; settings: hepatocytes, read-out: Hepatocyte Stability (t1/2)
[9] = Hepatocyte stability, rhesus monkey; format: in vitro ADME; settings: hepatocytes, read-out: Hepatocyte Stability (t1/2)
[10] = Metabolic stability in liver microsome and hepatocytes of multiple animal species (overall statement); format: in vitro ADME

IC50 [1]: 0.011 µM
Cl (PK profile in rats): 0.228 L/h/kg
PK profile in rats (in words) (PK profile in rats): good PK profile
t1/2 (PK profile in rats): 9.9 h
AUCN po (PK profile in rats; po): 8.9 µM·kg·h/mg
bioavailability (PK profile in rats; rat, in vivo, oral): 77%
Liver Microsome Stability (t1/2) [2]: 1.03 h
half-life [3]: 2.57 h
half-life [4]: 2.7 h
half-life [5]: 0.7 h
half-life [6]: > 1.5 h
half-life [7]: > 1.5 h
half-life [8]: > 1.5 h
half-life [9]: > 1.5 h
metabolic stability in liver microsome and hepatocytes of multiple animal species (in words) [10]: good metabolic stability
SMILES: CCC(c1ccc(C(F)(F)F)cc1)(C(O)C(F)F)n1ncc2c(NS(C)(=O)=O)cccc21 (single isomer, unassigned) [Compound 47, N-(1-(1,1-difluoro-2-hydroxy-3-(4-(trifluoromethyl)phenyl)pentan-3-yl)-1H-indazol-4-yl)methanesulfonamide]
